Experimental data from patent US20110065706A1, “Therapeutic Agents 812” (AstraZeneca AB, priority 2009, published 2011).

Molecular target: T1, human GPR119 (Homo sapiens, UniProt Q8TDV5)
T1 construct: expressed in transfected cells; host or cells: HEK 293s
T1 sequence (Q8TDV5 1-335): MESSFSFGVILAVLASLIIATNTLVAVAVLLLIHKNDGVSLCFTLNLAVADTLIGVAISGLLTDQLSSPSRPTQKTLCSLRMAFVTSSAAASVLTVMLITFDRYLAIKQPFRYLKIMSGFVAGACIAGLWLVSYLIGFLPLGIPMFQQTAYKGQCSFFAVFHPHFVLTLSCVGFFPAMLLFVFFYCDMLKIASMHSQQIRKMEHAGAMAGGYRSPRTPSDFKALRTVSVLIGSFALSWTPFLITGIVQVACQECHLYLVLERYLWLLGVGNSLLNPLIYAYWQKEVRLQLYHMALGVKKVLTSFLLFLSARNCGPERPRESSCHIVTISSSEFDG
Experiment: Cyclic AMP (HTRF cAMP) assay for human GPR119, Method A
Type: cell-based
Conditions: HEK293S, 0.75 h; Method A; HEK 293s cells over-expressing human GPR119; percent effect at top concentration 30 μM relative to maximum (50 μM Oleoylethanolamide) and minimum (1% DMSO) controls

| SMILES | activation at 30 µM [%] |
| --- | --- |
| CN1CCN(C(=O)c2ccc(COc3cnc(N4CCN(C(=O)OC(C)(C)C)CC4)nc3)cc2)CC1 [Example 51, tert-butyl 4-(5-(4-(4-methylpiper-azine-1-carbonyl)benz-yloxy)pyrimi-din-2-yl)piperazine-1-carboxylate] | 42 |
| C[C@@H]1CN(C(=O)OC(C)(C)C)CCN1c1ncc(OCc2ccc(C(=O)N(C)CCO)cc2)cn1 [Example 21, (R)-tert-butyl 4-(5-(4-((2-hydroxyethyl) (methyl)carba-moyl)benzyl-oxy)pyrimidin-2-yl)-3-methyl-piperazine-1-carboxylate] | 100 |
| C[C@@H]1CN(C(=O)OC(C)(C)C#N)CCN1c1ncc(OCc2ccc(S(C)(=O)=O)cc2)cn1 [Example 71, (R)-2-cyanopropan-2-yl 3-methyl-4-(5-(4-(methylsulfonyl)benzyloxy)pyrimidin-2-yl)piperazine-1-carboxylate] | 73 |
| CC(C)(C#N)OC(=O)N1CCN(c2ncc(OCc3ccncc3C#N)cn2)CC1 [Example 72, 2-cyanopropan-2-yl 4-(5-((3-cyanopyridin-4-yl)methoxy)pyrimidin-2-yl)piperazine-1-carboxylate] | 173 |
| CC(C)(C)OC(=O)N1CCN(c2ncc(OCc3ccc(S(C)(=O)=O)cn3)cn2)CC1 [Example 31, tert-butyl 4-(5-((5-(methylsulfonyl)pyridin-2-yl)methoxy)pyrimidin-2-yl)piperazine-1-carboxylate] | 86 |
| CC(C)(C#N)OC(=O)N1CCN(c2ncc(OCc3ccc(S(C)(=O)=O)cc3)cn2)CC1 [Example 70, 2-Cyanopropan-2-yl 4-(5-(4-(methylsulfonyl)benzyloxy)pyrimidin-2-yl)piperazine-1-carboxylate] | 28 |
| C[C@@H]1CN(C(=O)OC2CCOCC2)CCN1c1ncc(OCc2ccncc2C#N)cn1 [Example 82, (R)-Tetrahydro-2H-pyran-4-yl 4-(5-((3-cyanopyridin-4-yl)methoxy)pyrimidin-2-yl)-3-methylpiperazine-1-carboxylate] | 102 |
| C[C@@H]1CN(C(=O)OC(C)(C)C)CCN1c1ncc(OCc2ccncc2)cn1 [Example 19, (R)-Tert-butyl 3-methyl-4-(5-(pyridin-4-ylmethoxy)pyrimidin-2-yl)piperazine-1-carboxylate] | 68 |
| C[C@@H]1CN(C(=O)OC2(C)CC2)CCN1c1ncc(OCc2ccc(S(C)(=O)=O)cc2)cn1 [Example 61, (R)-1-methylcyclo-propyl 3-methyl-4-(5-(4-(methylsulfonyl)benzyloxy)pyrimidin-2-yl)piperazine-1-carboxylate] | 91 |
| CN1CCC(CNC(=O)c2ccc(COc3cnc(N4CCN(C(=O)OC(C)(C)C)CC4)nc3)cc2)CC1 [Example 52, tert-butyl 4-(5-(4-((1-methylpiper-idin-4-yl)methylcarba-moyl)benzyl-oxy)pyrimidin-2-yl)piperazine-1-carboxylate] | 20 |
| CNS(=O)(=O)c1ccc(COc2cnc(N3CCN(C(=O)OC(C)(C)C)CC3)nc2)cc1 [Example 16, tert-butyl 4-(5-(4-(N-methyl-sulfamoyl)benzyloxy)pyrimidin-2-yl)piperazine-1-carboxylate] | 57 |
| C[C@@H]1CN(C(=O)OC2CCC2)CCN1c1ncc(OCc2ccc(S(C)(=O)=O)cc2)cn1 [Example 64, (R)-cyclobutyl 3-methyl-4-(5-(4-(methylsulf-onyl)benzyl-oxy)pyrimi-din-2-yl)piperazine-1-carboxylate] | 57 |
| CC1(OC(=O)N2CCN(c3ncc(OCc4ccc(S(C)(=O)=O)cc4)cn3)CC2)COC1 [Example 79, 3-Methyloxetan-3-yl 4-(5-(4-(methylsulfonyl)benzyloxy)pyrimidin-2-yl)piperazine-1-carboxylate] | 37 |
| CCS(=O)(=O)c1ccc(COc2cnc(N3CCN(C(=O)OC(C)(C)C)CC3)nc2)cc1 [Example 83, Tert-butyl 4-(5-(4-(ethylsulfonyl)benzyloxy)pyrimidin-2-yl)piperazine-1-carboxylate] | 66 |
| CC(C)(C)OC(=O)N1CCN(c2ncc(OCc3ccc(S(C)(=O)=O)cc3)cn2)CC1 [Example 1, Tert-butyl 4-(5-(4-(methylsulfonyl)benzyloxy)pyrimidin-2-yl)piperazine-1-carboxylate] | 83 |

More lines, now with the values ahead:

| activation at 30 µM [%] | SMILES |
| --- | --- |
| 193 | N#Cc1cnccc1COc1cnc(N2CCN(C(=O)OCC(F)(F)F)CC2)nc1 [Example 106, 2,2,2-trifluorocthyl 4-(5-((3-cyanopyridin-4-yl)mcthoxy)pyrimidin-2-yl)pipcrazinc-1-carboxylate] |
| 188 | C[C@@H]1CN(c2noc(C3(C)COC3)n2)CCN1c1ncc(OCc2ccncc2C#N)cn1 [Example 107, (R)-4-((2-(2-methyl-4-(5-(3-methyloxetan-3-yl)-1,2,4-oxadiazol-3-yl)piperazin-1-yl)pyrimidin-5-yloxy)methyl)nicotinonitrile] |
| 75 | C[C@@H]1CN(c2noc(C(F)(F)F)n2)CCN1c1ncc(OCc2ccc(S(C)(=O)=O)cc2)cn1 [Example 90, (R)-3-(3-methyl-4-(5-(4-(mcthylsulfonyl)bcnzyloxy)pyrimidin-2-yl)pipcrazin-1-yl)-5-(trifluoromcthyl)-1,2,4-oxadiazole] |
| 167 | CC(C)c1nc(N2CCN(c3ncc(OCc4ccncc4C#N)cn3)CC2)no1 [Example 85, 4-((2-(4-(5-Isopropyl-1,2,4-oxadiazol-3-yl)piperazin-1-yl)pyrimidin-5-yloxy)methyl)nicotinonitrile] |
| 171 | C[C@@H]1CN(C(=O)OC2(C(F)(F)F)COC2)CCN1c1ncc(OCc2ccncc2C#N)cn1 [Example 111, (R)-3-(trifluoromcthyl) oxetan-3-yl 4-(5-((3-cyanopyridin-4-yl)mcthoxy)pyrimidin-2-yl)-3-mcthylpipcrazine-1-carboxylate] |
| 79 | CS(=O)(=O)c1ccc(COc2cnc(N3CCN(c4noc(C(F)(F)F)n4)CC3)nc2)cc1 [Example 88, 3-(4-(5-(4-(methylsulfonyl)bcnzyloxy)pyrimidin-2-yl)pipcrazin-1-yl)-5-(trifluoromcthyl)-1,2,4-oxadiazole] |
| 244 | C[C@@H]1CN(C(=O)O[C@H](C)C(F)(F)F)CCN1c1ncc(OCc2ccncc2C#N)cn1 [Example 103, (R)—((R)-1,1,1-trifluoropropan-2-yl) 4-(5-((3-cyanopyridin-4-yl)methoxy)pyrimidin-2-yl)-3-methylpiperazine-1-carboxylate] |

Same assay, conditions: Method A; HEK 293s cells over-expressing human GPR119; midpoint of dose response curve; selected examples

| EC50 [nM] | SMILES |
| --- | --- |
| 202 | C[C@@H]1CN(C(=O)OC(C)(C)C)CCN1c1ncc(OCc2ccc(C(=O)N(C)CCO)cc2)cn1 [Example 21, (R)-tert-butyl 4-(5-(4-((2-hydroxyethyl) (methyl)carba-moyl)benzyl-oxy)pyrimidin-2-yl)-3-methyl-piperazine-1-carboxylate] |
| 26 | C[C@@H]1CN(c2noc(C(F)(F)F)n2)CCN1c1ncc(OCc2ccc(S(C)(=O)=O)cc2)cn1 [Example 90, (R)-3-(3-methyl-4-(5-(4-(mcthylsulfonyl)bcnzyloxy)pyrimidin-2-yl)pipcrazin-1-yl)-5-(trifluoromcthyl)-1,2,4-oxadiazole] |
| 675 | C[C@@H]1CN(C(=O)OC2CCOCC2)CCN1c1ncc(OCc2ccncc2C#N)cn1 [Example 82, (R)-Tetrahydro-2H-pyran-4-yl 4-(5-((3-cyanopyridin-4-yl)methoxy)pyrimidin-2-yl)-3-methylpiperazine-1-carboxylate] |
| 123 | CCS(=O)(=O)c1ccc(COc2cnc(N3CCN(C(=O)OC(C)(C)C)CC3)nc2)cc1 [Example 83, Tert-butyl 4-(5-(4-(ethylsulfonyl)benzyloxy)pyrimidin-2-yl)piperazine-1-carboxylate] |

Same assay, conditions: human GPR119 cAMP assay; top concentration 30 μM

| significant activity at a top concentration of 30 μM | SMILES |
| --- | --- |
| did not show significant activity | CN1CCC(NC(=O)c2ccc(COc3cnc(N4CCN(C(=O)OC(C)(C)C)CC4)nc3)cc2)CC1 [tert-butyl 4-[5-[[4-[(1-methyl-4-piperidyl)carbamoyl]phenyl]methoxy]pyrimidin-2-yl]piperazine-1-carboxylate] |
| did not show significant activity | CC(=O)Nc1ncc(COc2cnc(N3CCN(C(=O)OC(C)(C)C)CC3)nc2)cn1 [tert-butyl 4-[5-[(2-acetamidopyrimidin-5-yl)methoxy]pyrimidin-2-yl]piperazine-1-carboxylate] |
